Data as given in ChEMBL document CHEMBL6134780, “Halogenated retinoid derivatives as dual RARα and RXRα modulators for treating acute promyelocytic leukemia cells” (Eur J Med Chem, 2024).
Values belong to the molecule of their own block, whether it stands above or below them. Active and inactive are the calls of the source. No cut-off for these calls is given here.

Legend:
[1] = test system: NB-4; test: Cell cycle arrest in human NB4 cells assessed as accumulation of cells at G2/M phase at higher concentration by DAPI staining based flow cytometric analysis; assay type: functional
[2] = test system: NB-4; test: Cell cycle arrest in human NB4 cells assessed as accumulation of cells at G0/G1 phase at 2 uM incubated for 12 hrs by DAPI staining based flow cytometric analysis (reference value: 56 %); assay type: functional
[3] = test system: NB-4; test: Cell cycle arrest in human NB4 cells assessed as accumulation of cells at S phase at 1 uM incubated for 24 hrs by DAPI staining based flow cytometric analysis (reference value: 26 %); assay type: functional
[4] = test system: NB-4; test: Cell cycle arrest in human NB4 cells assessed as accumulation of cells at G0/G1 phase at 0.5 uM incubated for 24 hrs by DAPI staining based flow cytometric analysis (reference value: 48 %); assay type: functional
[5] = test system: NB-4; test: Cell cycle arrest in human NB4 cells transfected with pLVX-shPML-RARalpha plasmid assessed as accumulation of cells at G0/G1 phase at 1 uM incubated for 12 hrs by DAPI staining based flow cytometric analysis (reference value: 38 %); assay type: functional
[6] = test system: NB-4; test: Cell cycle arrest in human NB4 cells transfected with pLVX-shPML-RARalpha plasmid assessed as accumulation of cells at G2/M phase at 2 uM incubated for 12 hrs by DAPI staining based flow cytometric analysis (reference value: 22 %); assay type: functional
[7] = Cell cycle arrest in human ATRA-resistant NB4-LR2 cells assessed as accumulation of cells at G2/M phase at 2 uM incubated for 6 hrs by DAPI staining based flow cytometric analysis (reference value: 15 %); assay type: functional
[8] = Cell cycle arrest in human ATRA-resistant NB4-LR2 cells assessed as accumulation of cells at sub-G1 phase at 1 uM incubated for 12 hrs by DAPI staining based flow cytometric analysis (reference value: 18 %); assay type: functional
[9] = Induction of apoptosis in human ATRA-resistant NB4-LR2 cells assessed as early apoptotic cells at 1 uM incubated for 24 hrs by Annexin V-FITC/PI staining based flow cytometric analysis (reference value: 1.41 %); assay type: functional
[10] = Cell cycle arrest in human ATRA-resistant NB4-LR2 cells assessed as accumulation of cells at G2/M phase at 2 uM incubated for 3 hrs by DAPI staining based flow cytometric analysis (reference value: 15 %); assay type: functional
[11] = Cell cycle arrest in human ATRA-resistant NB4-LR2 cells assessed as accumulation of cells at G2/M phase at 2 uM incubated for 24 hrs by DAPI staining based flow cytometric analysis (reference value: 25 %); assay type: functional
[12] = test system: NB-4; test: Cell cycle arrest in human NB4 cells transfected with pLVX-shPML-RARalpha plasmid assessed as accumulation of cells at S phase at 1 uM incubated for 12 hrs by DAPI staining based flow cytometric analysis (reference value: 19 %); assay type: functional
[13] = test system: NB-4; test: Cell cycle arrest in human NB4 cells transfected with pLVX-shPML-RARalpha plasmid assessed as accumulation of cells at G2/M phase at 1 uM incubated for 12 hrs by DAPI staining based flow cytometric analysis (reference value: 22 %); assay type: functional
[14] = test system: NB-4; test: Cell cycle arrest in human NB4 cells assessed as accumulation of cells at sub-G1 phase at 2 uM incubated for 3 hrs by DAPI staining based flow cytometric analysis (reference value: 3 %); assay type: functional
[15] = test system: NB-4; test: Cell cycle arrest in human NB4 cells transfected with pLVX-shRNA2-negative control assessed as accumulation of cells at sub-G1 phase at 2 uM incubated for 12 hrs by DAPI staining based flow cytometric analysis (reference value: 4 %); assay type: functional
[16] = Cell cycle arrest in human ATRA-resistant NB4-LR2 cells assessed as accumulation of cells at sub-G1 phase at 2 uM incubated for 24 hrs by DAPI staining based flow cytometric analysis (reference value: 12 %); assay type: functional
[17] = test system: NB-4; test: Cell cycle arrest in human NB4 cells assessed as accumulation of cells at sub-G1 phase at 1 uM incubated for 24 hrs by DAPI staining based flow cytometric analysis (reference value: 3 %); assay type: functional
[18] = Cell cycle arrest in human ATRA-resistant NB4-LR2 cells assessed as accumulation of cells at S phase at 2 uM incubated for 6 hrs by DAPI staining based flow cytometric analysis (reference value: 19 %); assay type: functional
[19] = test system: NB-4; test: Cell cycle arrest in human NB4 cells transfected with pLVX-shRXRalpha plasmid assessed as accumulation of cells at sub-G1 phase at 1 uM incubated for 12 hrs by DAPI staining based flow cytometric analysis (reference value: 10 %); assay type: functional
[20] = test system: NB-4; test: Cell cycle arrest in human NB4 cells assessed as accumulation of cells at S phase at 2 uM incubated for 3 hrs by DAPI staining based flow cytometric analysis (reference value: 20 %); assay type: functional
[21] = species on record: Homo sapiens; test: Binding affinity to N-terminal His-tagged human RARalpha LBD R276E mutant extracted from Escherichia coli BL21 (DE3) cells by ITC analysis
[22] = test system: NB-4; test: Cell cycle arrest in human NB4 cells assessed as accumulation of cells at sub-G1 phase at 1 uM incubated for 12 hrs by DAPI staining based flow cytometric analysis (reference value: 2 %); assay type: functional
[23] = test system: NB-4; test: Cell cycle arrest in human NB4 cells transfected with pLVX-shPML-RARalpha plasmid assessed as accumulation of cells at G0/G1 phase at 2 uM incubated for 12 hrs by DAPI staining based flow cytometric analysis (reference value: 38 %); assay type: functional
[24] = Cell cycle arrest in human ATRA-resistant NB4-LR2 cells assessed as accumulation of cells at sub-G1 phase at 2 uM incubated for 12 hrs by DAPI staining based flow cytometric analysis (reference value: 9 %); assay type: functional
[25] = Cell cycle arrest in human ATRA-resistant NB4-LR2 cells assessed as accumulation of cells at G0/G1 phase at 0.5 uM incubated for 24 hrs by DAPI staining based flow cytometric analysis (reference value: 42 %); assay type: functional
[26] = test system: NB-4; test: Cell cycle arrest in human NB4 cells assessed as accumulation of cells at G2/M phase at 1 uM incubated for 12 hrs by DAPI staining based flow cytometric analysis (reference value: 26 %); assay type: functional
[27] = Cell cycle arrest in human ATRA-resistant NB4-LR2 cells assessed as accumulation of cells at G0/G1 phase at 2 uM incubated for 6 hrs by DAPI staining based flow cytometric analysis (reference value: 57 %); assay type: functional
[28] = test system: NB-4; test: Cell cycle arrest in human NB4 cells assessed as accumulation of cells at G0/G1 phase at 1 uM incubated for 12 hrs by DAPI staining based flow cytometric analysis (reference value: 51 %); assay type: functional
[29] = test system: ATRA-resistant NB4-LR2; test: Induction of apoptosis in human ATRA-resistant NB4-LR2 cells transfected with pLVX-shRXRalpha assessed as increase in cleaved PARP expression at 1 uM incubated for 12 hrs by Western blot analysis; assay type: functional, cell-based
[30] = test system: NB-4; test: Cell cycle arrest in human NB4 cells transfected with pLVX-shRXRalpha plasmid assessed as accumulation of cells at G2/M phase at 2 uM incubated for 12 hrs by DAPI staining based flow cytometric analysis (reference value: 17 %); assay type: functional
[31] = Cell cycle arrest in human ATRA-resistant NB4-LR2 cells assessed as accumulation of cells at G2/M phase at 1 uM incubated for 24 hrs by DAPI staining based flow cytometric analysis (reference value: 25 %); assay type: functional

Compound: Cc1cc2c(cc1C(=O)/C(Br)=C\c1ccc(C(=O)O)cc1)C(C)(C)CCC2(C)C
Activity [1]: Active

Activity [21]: inactive
Compound: Cc1cc2c(cc1C(=O)/C(Br)=C/c1ccc(C(=O)O)cc1)C(C)(C)CCC2(C)C
Activity [2]: 11%
Activity [3]: 9%
Activity [4]: 59%
Activity [5]: 27%
Activity [6]: 20%
Activity [7]: 26%
Activity [8]: 21%
Activity [9]: 27.7%
Activity [10]: 33%
Activity [11]: 23%
Activity [12]: 21%
Activity [13]: 27%
Activity [14]: 3%
Activity [15]: 7%
Activity [16]: 21%
Activity [17]: 8%
Activity [18]: 7%
Activity [19]: 11%
Activity [20]: 21%
Activity [22]: 5%
Activity [23]: 31%
Activity [24]: 32%
Activity [25]: 37%
Activity [26]: 61%
Activity [27]: 45%
Activity [28]: 20%
Activity [29]: inactive
Activity [30]: 26%
Activity [31]: 30%
